{"source": "patent US20210024482A1", "about": "“Novel Group of STAT3 Pathway Inhibitors and Cancer Stem Cell Pathway Inhibitors” (Sumitomo Dainippon Pharma Oncology, Inc., priority 2007, published 2021)", "type_in_all_cases": "cell-based", "key": {"Stat3": {"test_system": "Stat3", "assay": "Stat3-luciferase (Stat3-Luc) reporter assay, OSM-stimulated HeLa cells", "details": "FIG. 6", "description": "HeLa Cells were co-transfected with Stat3-luciferase (Stat3-Luc) reporter vector (Panomics, Fremont, Calif.) and Renilla luciferase (Promega, Madison, Wis.) using Lipofectamine 2000 as described by the manufacturer (Invitrogen). Following transfection, cells were maintained in medium containing 0.5% FBS for 24 hours. Cells were then treated with the indicated compound for 30 minutes prior to the addition of 25 ng/ml oncostatin M (OSM) (R&D Systems, Minneapolis, Minn.) to the medium. 6 hours following OSM addition, cells were harvested and levels of firefly and renilla luciferase were measured using the Dual-Glo Luciferase Assay System as described by the manufacturer (Promega).\nCompounds were tested for their ability to inhibit Stat3 transcription activation activity in cells using a Stat3-luciferase (Stat3-luc) reporter construct. Cells transfected with Stat3-luc were cultured in reduced serum medium prior to addition of indicated compound for 30 minutes. Cells were then stimulated with 25 ng/ml oncostatin M (OSM) for 6 hours followed by detection of Stat3-luc reporter activity. […] AG490, a known inhibitor of the Jak-Stat pathway, was included as a positive control for Stat3 inhibition."}, "[1]": {"test_system": "Hoechst side population cells", "assay": "Annexin V staining of Hoechst side population cells", "details": "FIG. 9A", "description": "(§1) Cells treated with or without compound were harvested at 5 hours post treatment for Annexin-V staining. Collected cells were washed with PBS and resuspended in Annexin-V-FITC containing buffer and stained according to manufactures directions (Roche). Annexin-V positive cells were determined by Flow cytometry.\nCells treated with indicated compound for an indicated time were either fixed in 4% formaldehyde or cold methanol for the detection of Annexin V, cleaved caspase 3, or stat3, respectively. Coverslips were air dried and rehydrated in PBS at room temperature for 10 min. Samples were then incubated in blocking buffer (PBS, 5% FBS) for 10 min at room temperature in a humid chamber. Cells were incubated overnight at 4° C. with primary antibodies. After washing, the cells were incubated for 1 hour at room temperature with a 1:500 dilution of FITC conjugated anti-rabbit antibody. Images were captured with a Nikon TE200 microscope equipped with epifluorescence and a SPOT mosaic CCD camerapolyclonal Anti-cleaved caspase 3 antibody (1:100) was obtained from Cell Signaling Technology, Danvers, Mass. Annexin-V-FITC was obtained from Roche, Penzberg, Germany. Polyclonal anti-Stat3 antibody was obtained from Santa Cruz.\nThe Hoechst side population cells were treated with compound 401 and the mode of cell death was accessed by Annexin V (an early marker for apoptosis) staining."}, "CD133^+ cells": {"test_system": "CD133^+ cells", "assay": "Cleaved-Caspase 3 staining of CD133+ cells", "details": "FIG. 9B", "excerpt": "Sorting tumor cells based primarily upon the differential expression of the surface marker(s), such as CD44 or CD133, have accounted for the majority of the highly tumorigenic CSCs described to date. CD133 isolation is based upon the method of Ricci-Vitiani et al., with slight modification. CD133^+ cells were isolated by either fluorescence activated cell sorting (FACS) or magnetic nanoparticle-based separation. Briefly, […] were labeled with CD133/1 (AC133)-PE for FACS-based cell sorting; or with CD133/1 (AC133)-biotin (Miltenyi Biotec, Auburn, Calif.) for magnetic field-based separation using the EasySep® biotin selection kit (Miltenyi Biotec) according to the manufacturer's recommendations. Non-specific labeling was blocked with the supplied FcR blocking reagent and antibody incubations (1:11) were carried out on ice for 15 minutes in PBS with 2% FBS and 1 mM EDTA. Five washes were done for EasySep® isolation, whereas cells were pelleted at 400×g for 5 minutes and resuspended at 2×10^7/mL, before sorting by FACS.\nCells treated with indicated compound for an indicated time were either fixed in 4% formaldehyde or cold methanol for the detection of Annexin V, cleaved caspase 3, or stat3, respectively. Coverslips were air dried and rehydrated in PBS at room temperature for 10 min. […]"}, "CD44^high CSCs": {"test_system": "CD44^high CSCs", "assay": "Sphere assay with CD44high CSCs", "details": "spheres grown 72 hours before challenge, FIGS. 10A and 10B", "description": "A reliable method of measuring the self-renewal capacity of cell population if the ability to be cultured as spheres in the absence of serum or attachment. CD44^high FaDu or Hoechst side population cancer stem cells were cultured in ultra low attachment plates in cancer stem cell media (DMEM/F12, B27 Neurobasal supplement, 20 ng/ml EGF, 10 ng/ml FGF, 4 μg/ml insulin, and 0.4% BSA) to allow spheres formation. Typically, sphere formation was evaluated by microscopy after 10-14 days in culture and spheres with >50 cells were scored.\nOne of the hallmarks cancer stem cells is their ability to self-renew. A reliable method of measuring the self-renewal capacity of cell populations is the ability to be cultured as spheres in the absence of serum or attachment. To compare the ability of compound 401 to other targeted and chemotherapeutic agents, FACS-isolated CD44^high CSCs were grown as spheres for 72 hours before being challenged with a panel of therapeutic agents. […] Tarceva, Sutent, and Gleevec were added at approximately three times their reported therapeutic concentrations."}, "HT29 colon cancer cells": {"test_system": "HT29 colon cancer cells", "assay": "Colony formation assay, HT29", "details": "Homo sapiens, HT-29, similar conditions"}, "DU145 cells": {"test_system": "DU145 cells", "assay": "Annexin V flow cytometry in DU145 cells", "details": "5 hours post-treatment, FIG. 11", "description": "as §1\nAdditionally, DU145 cells were first treated with DMSO or the indicated concentrations of compound 401, then stained with Annexin V, and followed by Flow cytometry analysis 5 hours post-treatment."}, "[2]": {"test_system": "Peripheral blood mononuclear cells (PBMCs)", "assay": "MTT cell viability of normal PBMCs", "details": "PBMC, 24 hour incubation", "description": "For 3-(4,5 dimethylthiazol-2-yl)-2,5-diphenyltetrazolium (MTT) (Sigma-Aldrich, St. Louis, Mo.) analysis, cells were plated in 96 well plates at 10,000 cells per well. 24 hours after plating, compound was added to cells at indicated doses. 22 hours following compound addition, MTT was added to each well (0.5 mg/ml, final concentration) and plates were incubated for an additional 2 hours at 37° C. Medium was then aspirated and the formazan product was solubilized in 100 μl of isopropyl alcohol. The absorbance of each well was measured at 570 nm using a microplate reader.\nUnder assay conditions that result in the death of virtually all cancer cells, normal cells remain substantially viable."}}, "note": "pIC50: −log10 of the molar value."}
{"smiles": "CC(=O)c1cc2c(o1)C(=O)c1ccccc1C2=O", "note": "[Compound 401, 2-acetylnaphtho[2,3-b]furan-4,9-dione]", "values": [{"measurement": "inhibition of OSM-stimulated Stat3 reporter activity", "setting": "Stat3", "result": "inhibited OSM-stimulated Stat3 reporter activity"}, {"measurement": "mode of cell death by Annexin V staining", "setting": "[1]", "result": "the dying cells are Annexin V positive"}, {"measurement": "cleaved-Caspase 3 staining", "setting": "CD133^+ cells", "result": "many of the CD133^+ cells become cleaved-Caspase 3 positive"}, {"measurement": "prevention of sphere proliferation", "setting": "CD44^high CSCs", "result": "effective at preventing sphere proliferation"}, {"measurement": "pIC50", "setting": "HT29 colon cancer cells", "result": "> 6.30"}, {"measurement": "Annexin V staining", "setting": "DU145 cells", "result": "dose-dependent increase in the Annexin V staining"}, {"measurement": "pIC50", "setting": "[2]", "result": 4.85}]}
